According to ChEMBL document CHEMBL1159259, “A bioactive tetraprenylphenol from Lactarius lignyotus” (1995):

Tests used:
Type in all cases: functional
Parameters in all cases: scale not given: the % may be the effect or the level left
HL-60 [1] = assay: Inhibition of protein synthesis in human HL60 cells assessed as [3H]leucine incorporation at 25 ug/ml after 45 mins by liquid scintillation counting
HeLa S3 [2] = assay: Inhibition of protein synthesis in human HeLaS3 cells assessed as [3H]leucine incorporation at 75 ug/ml after 45 mins by liquid scintillation counting
HeLa S3 [3] = assay: Inhibition of DNA synthesis in human HeLaS3 cells assessed as [3H]thymidine incorporation at 75 ug/ml after 45 mins by liquid scintillation counting
HeLa S3 [4] = assay: Inhibition of DNA synthesis in human HeLaS3 cells assessed as [3H]thymidine incorporation at 50 ug/ml after 45 mins by liquid scintillation counting
HL-60 [5] = assay: Inhibition of protein synthesis in human HL60 cells assessed as [3H]leucine incorporation at 10.4 ug/ml after 45 mins by liquid scintillation counting
HL-60 [6] = assay: Inhibition of DNA synthesis in human HL60 cells assessed as [3H]thymidine incorporation at 75 ug/ml after 45 mins by liquid scintillation counting
HeLa S3 [7] = assay: Inhibition of protein synthesis in human HeLaS3 cells assessed as [3H]leucine incorporation at 10.4 ug/ml after 45 mins by liquid scintillation counting
HeLa S3 [8] = assay: Inhibition of DNA synthesis in human HeLaS3 cells assessed as [3H]thymidine incorporation at 25 ug/ml after 45 mins by liquid scintillation counting
HL-60 [9] = assay: Inhibition of DNA synthesis in human HL60 cells assessed as [3H]thymidine incorporation at 10.4 ug/ml after 45 mins by liquid scintillation counting
HeLa S3 [10] = assay: Inhibition of protein synthesis in human HeLaS3 cells assessed as [3H]leucine incorporation at 25 ug/ml after 45 mins by liquid scintillation counting
HL-60 [11] = assay: Inhibition of RNA synthesis in human HL60 cells assessed as [3H]uridine incorporation at 25 ug/ml after 45 mins by liquid scintillation counting
HL-60 [12] = assay: Inhibition of RNA synthesis in human HL60 cells assessed as [3H]uridine incorporation at 75 ug/ml after 45 mins by liquid scintillation counting
HeLa S3 [13] = assay: Inhibition of RNA synthesis in human HeLaS3 cells assessed as [3H]uridine incorporation at 25 ug/ml after 45 mins by liquid scintillation counting
HL-60 [14] = assay: Inhibition of protein synthesis in human HL60 cells assessed as [3H]leucine incorporation at 75 ug/ml after 45 mins by liquid scintillation counting
HL-60 [15] = assay: Inhibition of RNA synthesis in human HL60 cells assessed as [3H]uridine incorporation at 50 ug/ml after 45 mins by liquid scintillation counting
HL-60 [16] = assay: Inhibition of RNA synthesis in human HL60 cells assessed as [3H]uridine incorporation at 10.4 ug/ml after 45 mins by liquid scintillation counting
HeLa S3 [17] = assay: Inhibition of RNA synthesis in human HeLaS3 cells assessed as [3H]uridine incorporation at 75 ug/ml after 45 mins by liquid scintillation counting
HeLa S3 [18] = assay: Inhibition of RNA synthesis in human HeLaS3 cells assessed as [3H]uridine incorporation at 50 ug/ml after 45 mins by liquid scintillation counting
HeLa S3 [19] = assay: Inhibition of RNA synthesis in human HeLaS3 cells assessed as [3H]uridine incorporation at 10.4 ug/ml after 45 mins by liquid scintillation counting
HL-60 [20] = assay: Inhibition of protein synthesis in human HL60 cells assessed as [3H]leucine incorporation at 50 ug/ml after 45 mins by liquid scintillation counting
HL-60 [21] = assay: Inhibition of DNA synthesis in human HL60 cells assessed as [3H]thymidine incorporation at 50 ug/ml after 45 mins by liquid scintillation counting
HL-60 [22] = assay: Inhibition of DNA synthesis in human HL60 cells assessed as [3H]thymidine incorporation at 25 ug/ml after 45 mins by liquid scintillation counting
HeLa S3 [23] = assay: Inhibition of protein synthesis in human HeLaS3 cells assessed as [3H]leucine incorporation at 50 ug/ml after 45 mins by liquid scintillation counting
HeLa S3 [24] = assay: Inhibition of DNA synthesis in human HeLaS3 cells assessed as [3H]thymidine incorporation at 10.4 ug/ml after 45 mins by liquid scintillation counting

| Structure (SMILES) | Activity (HL-60 [1]) [%] | Activity (HeLa S3 [2]) [%] | Activity (HeLa S3 [3]) [%] | Activity (HeLa S3 [4]) [%] | Activity (HL-60 [5]) [%] | Activity (HL-60 [6]) [%] | Activity (HeLa S3 [7]) [%] | Activity (HeLa S3 [8]) [%] | Activity (HL-60 [9]) [%] | Activity (HeLa S3 [10]) [%] | Activity (HL-60 [11]) [%] | Activity (HL-60 [12]) [%] | Activity (HeLa S3 [13]) [%] | Activity (HL-60 [14]) [%] | Activity (HL-60 [15]) [%] | Activity (HL-60 [16]) [%] | Activity (HeLa S3 [17]) [%] | Activity (HeLa S3 [18]) [%] | Activity (HeLa S3 [19]) [%] | Activity (HL-60 [20]) [%] | further results |
| --- | --- | --- | --- | --- | --- | --- | --- | --- | --- | --- | --- | --- | --- | --- | --- | --- | --- | --- | --- | --- | --- |
| CC(C)=CCC/C(C)=C/CC/C(C)=C/CC/C(C)=C/Cc1cc(O)ccc1O [GERANYLGERANYLHYDROQUINONE] | 52 | 61 | 49 | 83 | 85 | 17 | 100 | 74 | 55 | 92 | 32 | 42 | 83 | 32 | 36 | 95 | 86 | 91 | 96 | 52 | Activity (HL-60 [21]): 20%; Activity (HL-60 [22]): 38%; Activity (HeLa S3 [23]): 67%; Activity (HeLa S3 [24]): 100% |
| COc1ccc(O)c(CC=C(C)C)c1 | 38 | 37 | 31 | 70 | 49 | 1.5 | 96 | 59 | 64 | 43 | 50 | 38 | 86 | 32 | 55 | 98 | 90 | 91 | 97 | 35 | Activity (HL-60 [21]): 14%; Activity (HL-60 [22]): 32%; Activity (HeLa S3 [23]): 38%; Activity (HeLa S3 [24]): 100% |
